Values quoted from earlier work in patent US6406894B1, “Process for preparing polyvalent and physiologically degradable carbohydrate-containing polymers by enzymatic glycosylation reactions and the use thereof for preparing carbohydrate building blocks” (Glycorex AB, priority 1992, dated 2002).

Molecular target: T1, E-selectin-IgG (Homo sapiens, UniProt P16581)
T1 construct: soluble fusion proteins formed between the extracytoplasmic domain of E- or P-selectin together with the constant region of a human immunoglobulin of subclass IgG1; made in house; host or cells: COS-7 cells, transient transfection with DEAE-dextran; the culture supernatant was used and captured on plates coated with anti-human IgG
T1 sequence (P16581 with tags, fused parts or gaps): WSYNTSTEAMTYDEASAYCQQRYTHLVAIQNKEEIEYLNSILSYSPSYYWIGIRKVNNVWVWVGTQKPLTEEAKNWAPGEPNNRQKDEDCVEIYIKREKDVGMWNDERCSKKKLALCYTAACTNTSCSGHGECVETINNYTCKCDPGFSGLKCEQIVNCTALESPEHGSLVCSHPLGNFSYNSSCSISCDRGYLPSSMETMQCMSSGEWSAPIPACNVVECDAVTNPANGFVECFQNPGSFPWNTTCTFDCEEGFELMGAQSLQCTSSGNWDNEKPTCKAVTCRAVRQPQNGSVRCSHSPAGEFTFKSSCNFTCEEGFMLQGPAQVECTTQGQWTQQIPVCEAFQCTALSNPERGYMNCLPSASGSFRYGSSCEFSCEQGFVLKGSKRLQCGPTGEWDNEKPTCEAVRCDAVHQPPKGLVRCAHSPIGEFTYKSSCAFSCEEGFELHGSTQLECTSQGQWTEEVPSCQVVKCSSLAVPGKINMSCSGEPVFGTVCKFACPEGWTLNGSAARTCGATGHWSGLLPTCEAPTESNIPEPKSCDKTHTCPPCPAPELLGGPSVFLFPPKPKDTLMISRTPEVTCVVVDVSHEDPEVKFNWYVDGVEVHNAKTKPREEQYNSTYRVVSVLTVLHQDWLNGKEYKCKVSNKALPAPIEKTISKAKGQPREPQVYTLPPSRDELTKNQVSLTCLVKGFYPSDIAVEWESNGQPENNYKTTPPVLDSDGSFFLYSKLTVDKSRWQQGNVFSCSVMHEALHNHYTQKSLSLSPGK
Conditions: comparative value, c.f. EPA 93 119 098.7; read-out: Comparative value: IC50 of HL60 cell adhesion to E-selectin-IgG

IC50: 1000 µM
Structure (SMILES): CC(=O)NC1C(O)CC(OC2C(O)C(CO)OC(OC3C(CO)OC(OCCCCCCN)C(NC(C)=O)C3OC3OC(C)C(O)C(O)C3O)C2O)(C(=O)O)OC1C(O)C(O)CO (stereo not shown) [Sialyl-Le^x—O(CH2)6NH2]
